According to US6440659B1, “Inhibitors of retroviral protease as inducers of reversible insulin resistance in vitro and in vivo” (Washington University, priority 2000, dated 2002):

How the values were obtained:
[1] = test system: 3T3-L1 adipocytes; assay: [3H]-2-deoxyglucose uptake in 3T3-L1 adipocytes, basal and insulin-stimulated; assay type: cell-based; conditions: for effect on insulin-stimulated glucose uptake relative to indinavir: 50 μM (FIG. 1B); for effect on basal glucose uptake: basal conditions
Description: FIG. 1A. […] Results from three experiments were normalized to the value obtained from insulin-stimulated control cells and are shown as the mean±S.E. (n=6). FIG. 1B. […] Results were normalized to the value obtained from insulin-stimulated control cells and are shown as the mean±S.E. (n=3). 3T3-L1 fibroblasts obtained from the American Type Culture Collection were grown to confluence and 48 h later subjected to the differentiation protocol described previously (Tordjman et al. 1989). Mature 3T3-L1 adipocytes were maintained in DMEM supplemented with 10% fetal bovine serum and used 10 to 15 d post-differentiation. 3T3-L1 adipocytes grown in 3.5 cm dishes were serum-starved for at least 3 hours and then washed three times with Krebs-Ringer phosphate buffer. […] Stock solutions of indinavir and amprenavir were made in water. Ritonavir was dissolved in ethanol.

[2] = molecular target: T1, Glut4 (Rattus norvegicus, UniProt P19357); assay: [3H]-2-deoxyglucose uptake in Xenopus oocytes expressing Glut4; assay type: cell-based; conditions: for inhibition at 50 µM: 50 μM (FIG. 3B)
T1 construct: expressed in transfected cells; host or cells: Xenopus laevis oocytes, microinjected with in vitro transcribed mRNA
T1 sequence (P19357 1-509): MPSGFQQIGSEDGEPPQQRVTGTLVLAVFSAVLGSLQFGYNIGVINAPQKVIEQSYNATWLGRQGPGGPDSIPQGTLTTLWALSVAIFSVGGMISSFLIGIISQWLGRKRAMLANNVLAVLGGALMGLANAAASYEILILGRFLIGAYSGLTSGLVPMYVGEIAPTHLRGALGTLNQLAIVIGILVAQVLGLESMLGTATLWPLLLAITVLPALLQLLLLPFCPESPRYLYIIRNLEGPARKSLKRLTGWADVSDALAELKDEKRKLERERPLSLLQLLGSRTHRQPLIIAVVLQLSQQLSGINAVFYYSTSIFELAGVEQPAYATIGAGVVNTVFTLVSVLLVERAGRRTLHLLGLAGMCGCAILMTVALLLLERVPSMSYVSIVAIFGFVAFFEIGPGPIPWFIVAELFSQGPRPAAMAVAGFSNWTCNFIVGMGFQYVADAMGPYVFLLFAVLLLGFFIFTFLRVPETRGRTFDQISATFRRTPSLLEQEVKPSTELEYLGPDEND
Description: (§1) FIG. 3A. Xenopus oocytes heterologously expressing either Glut1 or Glut4 isoforms were used for [^3H]-2-deoxyglucose uptake measurement in Barth's Saline at 22° C. for 30 min. […] Plotted are the mean uptake from 15-20 oocytes±S.E. [* indicates p<0.01 compared with control (ANOVA with Fischer's PLSD posthoc analysis).]
(§2) FIG. 3B. Glucose uptake in X. laevis oocytes as described above. […] The data are normalized to the uptake from the control oocytes which were not exposed to protease inhibitor. [* indicates p<0.0001 compared with control (ANOVA with Fischer's PLSD posthoc analysis).]
(§3) Xenopus laevis oocytes were prepared and injected as described previously (Keller et al., 1989) with 50 ng of either Glut1 or Glut4 mRNA synthesized in vitro (Megascript RNA synthesis kit, Ambion). After a three day incubation in Barth=s saline containing albumin at 18° C., groups of 15-20 oocytes were washed and [^3H]-2-deoxyglucose (50 μM) uptake measurements were performed in Barth's saline at 22° C. for 30 minutes.

[3] = test system: Glut1; assay: Immunoblot of Glut1 content in PM and LDM fractions of 3T3-L1 adipocytes (translocation); conditions: indinavir-treated cells, 100 μM for 4 h
[4] = Glucose tolerance after acute indinavir administration in rats; assay type: in vivo, male Wistar rats
Description: (§4) Male Wistar rats (Charles River Corp) weighing between 250-400 g were used for all experiments described below. Glucose measurements were made using a Glucometer Elite Glucometer (Bayer Corporation, Diagnostics Division, Tarrytown, N.Y.). […] Jugular vein and carotid artery catheters were fabricated using microrenathane tubing (Braintree Scientific) for venous catheters and PE50 tubing (Becton Dickenson) for arterial catheters. Catheters were inserted surgically under methohexital (Jones Pharma Inc, St. Louis, Mo.) anesthesia. Humulin R insulin (Eli Lilly, Indianapolis, Ind.) was used where indicated.

[5] = molecular target: T2, Glut1 (Homo sapiens, UniProt P11166); assay: [3H]-2-deoxyglucose uptake in Xenopus oocytes expressing Glut1; assay type: cell-based; conditions: 22° C., 30 min
T2 construct: expressed in transfected cells; host or cells: Xenopus laevis oocytes, microinjected with in vitro transcribed mRNA
T2 sequence (P11166 1-492): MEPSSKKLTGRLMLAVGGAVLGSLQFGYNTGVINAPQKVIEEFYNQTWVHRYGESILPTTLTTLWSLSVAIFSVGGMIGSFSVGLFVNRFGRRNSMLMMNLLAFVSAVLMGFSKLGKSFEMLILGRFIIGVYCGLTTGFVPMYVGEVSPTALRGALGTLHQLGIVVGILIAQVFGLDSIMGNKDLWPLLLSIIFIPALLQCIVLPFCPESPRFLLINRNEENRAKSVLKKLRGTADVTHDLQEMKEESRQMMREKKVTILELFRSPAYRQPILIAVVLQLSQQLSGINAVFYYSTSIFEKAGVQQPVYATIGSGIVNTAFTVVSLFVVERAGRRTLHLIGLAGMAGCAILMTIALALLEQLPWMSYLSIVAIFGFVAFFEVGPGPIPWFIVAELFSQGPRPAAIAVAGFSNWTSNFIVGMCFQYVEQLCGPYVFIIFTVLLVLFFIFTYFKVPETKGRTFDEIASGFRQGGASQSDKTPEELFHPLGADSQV
Description: as §1, §2, §3

[6] = test system: insulin receptor (IR), IRS-1 and Akt phosphorylation; assay: Immunoblot of insulin signaling (IR, IRS-1, Akt phosphorylation) in 3T3-L1 adipocytes; assay type: cell-based; conditions: 100 μM for 4 h, 1 μM insulin 20 min
Description: Cells were further incubated for 20 min with or without 1 μM insulin, and subcellular fractions were subsequently isolate. Plasma membrane (PM), low density microsomal (LDM), and cytosolic (CYT) fractions were subjected to immunoblot analysis using anti-phosphotyrosine antibodies.
Whole cell lysates from 3T3-L1 adipocytes from samples treated as described above were subjected to immunoblot analysis using anti-phospo Akt antibodies, which recognize Akt phosphorylated on threonine 308 and serine 473.

[7] = test system: Glut4; assay: Immunoblot of Glut4 content in PM and LDM fractions of 3T3-L1 adipocytes (translocation); conditions: indinavir-treated cells, 100 μM for 4 h
[8] = Euglycemic hyperinsulinemic clamp (peripheral insulin sensitivity) in rats; assay type: in vivo, male Wistar rats; conditions: for reduction in peripheral insulin sensitivity (average GIR) compared with controls: infusion started 30 min before clamp, p<0.05
Description: Jugular vein and carotid artery catheters were inserted, at least 4 days prior to each experiment, into 200-400 gm male Wistar rats under methohexital anesthesia. Following an overnight fast, rats were infused with insulin (40 mU/kg/min) and 50% dextrose through the venous catheter. Blood was sampled every 5-10 minutes through the arterial catheter and serum glucose concentrations were determined. The glucose infusion rate (GIR) space was adjusted to maintain glucose levels of 100-110 mg/dl.
Male Wistar rats weighing 200-300 gm were catheterized as described in FIG. 5. […] After 30 minutes, insulin (40 mU/kg/min) and 50% dextrose were added to the intravenous infusion. Blood was sampled through the arterial line every 5 min and the dextrose infusion rate was adjusted to maintain plasma glucose levels between 105-115 mg/dL. GIR represents the mean glucose infusion rate during the final 30 minutes of each 2 hour clamp experiment. Results represent the mean±SEM from 3-5 rats per group. [* indicates […]]
as §4
Peripheral insulin sensitivity in rats was assessed by the euglycemic hyperinsulinemic clamp technique. Venous and arterial catheters were surgically inserted into the animals under anesthesia. At least 4 d prior to the initiation of experimental treatments catheters were inserted into both jugular vein and carotid artery locations. Following a 12 hour fast, animals were infused with insulin (40 mU/kg/min) and 50% dextrose in water through the venous catheter. Blood was sampled every 5-10 min through the arterial catheter for serum glucose determinations. The rate of glucose infusion (Glucose Infusion Rate, GIR) was adjusted as necessary to maintain serum glucose at 100-110 mg/dl (FIGS. 5A, 5B, 5C).
Insulin sensitivity was assessed by the average glucose infusion rate required to maintain euglycemia after equilibrium had been established.

## CC(C)c1nc(CN(C)C(=O)N[C@H](C(=O)N[C@@H](Cc2ccccc2)C[C@H](O)[C@H](Cc2ccccc2)NC(=O)OCc2cncs2)C(C)C)cs1 [ritonavir]
[1]
  effect on insulin-stimulated glucose uptake relative to indinavir: comparable to that of indinavir
[2]
  inhibition at 50 µM: 42%

## CC(C)(C)NC(=O)[C@@H]1CN(Cc2cccnc2)CCN1C[C@@H](O)C[C@@H](Cc1ccccc1)C(=O)N[C@H]1c2ccccc2C[C@H]1O [indinavir]
[3]
  increase with insulin of Glut1 content in plasma membrane (PM) fraction: 63%
[4]; 10 mg/kg i.p. together with dextrose 2 g/kg i.p., control 195±15, p<0.05
  blood glucose concentration at t=30 min: 241 ± 11 mg/dL
[4]; 15 mg/kg i.v. 5 min prior to glucose 2 gm/kg i.p., control 311±30
  peak plasma glucose concentration: 407 ± 25 mg/dL
[1]; Mus musculus, 3T3-L1, 10 μM, added 6 min prior to assay, 1 μM insulin, p<0.0001, read-out: inhibition of insulin-stimulated glucose uptake
  inhibition at 10 µM: 26%
[1]; Mus musculus, 3T3-L1, 100 μM, added 6 min prior to assay, 1 μM insulin for 20 min, read-out: inhibition of insulin-stimulated glucose uptake
  inhibition at 100 µM: 63%
[1]; 20 μM
  effect on basal glucose uptake: modest increase
[1]; 10-100 μM
  effect on basal glucose uptake: largely unaffected
[1]; data not shown
  extent of inhibition of transport activity when added before or after 20 min of insulin stimulation: did not change
  time to restoration of normal insulin-responsive glucose uptake after removal of drug: ≤ 30 min
[5]
  effect on Glut1 activity in Xenopus oocytes: no effect
[6]
  IR autophosphorylation and tyrosine phosphorylation of IRS-1: occurred normally
  effect on insulin-stimulated phosphorylation of Akt on threonine 308 or serine 473: no effect
[7]
  increase with insulin of Glut4 content in plasma membrane (PM) fraction: 38%
[2]; 100 μM (maximum dose tested)
  inhibition at 100 µM: 45%
[8]; 0.3 mg/kg/min
  reduction in peripheral insulin sensitivity (average GIR) compared with controls: 15%
[8]; 0.5 mg/kg/min
  reduction in peripheral insulin sensitivity (average GIR) compared with controls: 40%
[8]; after stopping indinavir infusion
  time to restoration of insulin sensitivity to baseline after stopping infusion: ≤ 4 h
[8]; i.v. infusion 0.3 mg/kg/min
  decrease in GIR required to maintain euglycemia: 20%
[8]; i.v. infusion 0.5 mg/kg/min, within 90 minutes after start
  decrease in GIR required to maintain euglycemia: 50%

## CC(C)CN(C[C@@H](O)[C@H](Cc1ccccc1)NC(=O)O[C@H]1CCOC1)S(=O)(=O)c1ccc(N)cc1 [amprenavir]
[1]
  effect on insulin-stimulated glucose uptake relative to indinavir: comparable to that of indinavir
[2]
  inhibition at 50 µM: 54%
